Test: gradient 5% acetonitrile 3 min, to 50% in 2 min, to 85% in 15 min, held 3 min, 100 µL/min
Settings: column: Zorbax Extend-C18 2.1 x 50 mm; eluents: water / acetonitrile, 0.1% formic acid
Method in brief: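 Mixtures of ~100 pure standards were chromatographed on a Zorbax Extend-C18 column (2.1 × 50 mm, 1.8 μm) at 100 μL/min using water and acetonitrile, each with 0.1% formic acid. Detection used a quadrupole time-of-flight mass spectrometer in positive and negative ionization mode, and data collection spanned 3 months. Retention time was obtained from adduct peaks picked computationally and each checked manually.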

Row | RP-LC retention time [s] | SMILES
1 | 663 | CC1(C)Cc2cccc(OCc3ccc(C(=O)NCc4ccccn4)cc3)c2O1
2 | 618 | CCC(C)NC(=O)Cn1c(=O)c(=O)n(CC)c2ncccc21 (stereo not drawn)
3 | 848 | O=C(Nc1ccc(Cl)cc1)N1CCC(n2cnc3ccc(F)cc3c2=O)CC1
4 | 900 | CCCn1ccc2sc(C)c(C(=O)NC(C)c3ccccc3)c2c1=O (stereo not drawn)
5 | 740 | CCOC(=O)c1cn(CC(=O)Nc2cc(F)ccc2F)nn1
6 | 872 | O=C(Cn1c(=O)c2cc(-c3cccs3)nn2c2ncccc21)Nc1ccc(F)cc1F
7 | 827 | O=C(Cc1csc(NC(=O)C2CC2)n1)Nc1ccc(Cl)c(Cl)c1
8 | 769 | Cc1csc(-c2cc(S(=O)(=O)NC(C)C)cn2CC(=O)N2CCCC2)n1
9 | 734 | O=C(NCC1CCOCC1)Nc1ccc(C(F)(F)F)cc1
10 | 911 | CCC(=O)N(C1CCOCC1)C1CCN(S(=O)(=O)c2ccc(Cl)cc2C)CC1
11 | 778 | Cc1nc(N2CCOCC2)c2c(C(=O)Nc3ccccc3)c(C)oc2n1
12 | 636 | CCn1cc(S(=O)(=O)N2CC(F)(F)C[C@H]2COc2cccnc2)cn1
13 | 628 | Cc1ccc(-c2cn3c(n2)N(C(=O)Cn2ccnc2C)CCC3)cc1
14 | 785 | COc1ccc(-c2nnc(-c3ccc(C)c(S(=O)(=O)N4CCC(C(=O)O)CC4)c3)o2)cc1OC
15 | 751 | Cc1nc2ccn(Cc3ccco3)c(=O)c2cc1C(=O)NC1CCCCC1
16 | 668 | O=C(Nc1cc(-c2ccccn2)no1)C1CC1
17 | 995 | CC1CCN(C(=O)c2ccc(OCC3CCCN(C(=O)c4ccc(F)cc4)C3)cc2)CC1 (stereo not drawn)
18 | 689 | O=C(CSc1ccc(N2CCCC(C(=O)NC3CC3)C2)nn1)Nc1cccc(Cl)c1 (stereo not drawn)
19 | 584 | O=C(c1ccc2c(c1)OCO2)N1CCCn2nc(-c3ccncc3)cc2C1
20 | 784 | CCN1c2ccc(F)cc2C(=O)NC12CCN(C(=O)Cc1ccc(OC)cc1)CC2
21 | 1030 | Cc1ccc(S(=O)(=O)n2nc(OC(=O)c3ccc(Cl)cc3Cl)cc2N)cc1
22 | 683 | CC(C)OCCCNC(=O)C1CCCN(c2ccc(-c3ccccc3)nn2)C1 (stereo not drawn)

Row | RP-LC retention time [s] | SMILES
23 | 767 | CC(C)c1ccc(S(=O)(=O)c2cnc(N3CCN(C4CCCCC4)CC3)nc2N)cc1
24 | 566 | CC(NC(=O)c1ccncc1)C(=O)Nc1nc2ccccc2[nH]1 (stereo not drawn)
25 | 693 | Cc1ccc(NC(=O)Cn2cnc3nc(N4CCC(C(=O)NC5CC5)CC4)sc3c2=O)cc1C
26 | 582 | COc1cccc(CNC(=O)C2CCN(CC(=O)Nc3ccc(C)cc3)CC2)c1
27 | 589 | Cc1cccc(NC(=O)C2CCCN(S(=O)(=O)c3c[nH]c(C(=O)N4CCCC4)c3)C2)c1 (stereo not drawn)
28 | 1160 | CCOc1ccc(-c2csc(NC(=O)CCCc3nc(-c4ccccc4Cl)no3)n2)cc1
29 | 573 | CC(C)N1CCc2c(sc(NC(=O)c3ccc([N+](=O)[O-])s3)c2C(N)=O)C1
30 | 799 | COCc1nnc(C(=O)Nc2cccc(C(=O)NCCc3c[nH]c4ccc(OC)cc34)c2)s1
31 | 848 | CCN(CC)S(=O)(=O)c1ccc2c(c1)CC(C(=O)NCCC(C)C)N2C(C)=O (stereo not drawn)
32 | 708 | CCNc1nc(C)cc(N2CCN(S(=O)(=O)c3cccc(C)c3)CC2)n1
33 | 702 | Cc1c(CNCc2ccco2)c(C(=O)O)c(C)n1Cc1cccc(Cl)c1
34 | 778 | Cn1cc(SCC(=O)NCc2ccco2)c2ccccc21
35 | 1160 | Cc1nc(-c2nnn(-c3ccc(Cl)cc3)c2C)sc1C(=O)NC1CCCCC1
36 | 714 | C=CCNCc1ccc(-c2cccc(C(F)(F)F)c2)o1
37 | 672 | O=C(CN1C(=O)C2CCCCN2c2ccc(C(=O)N3CCCC3)cc21)NCC1CCCO1 (stereo not drawn)
38 | 1070 | O=C1CC(c2noc(-c3ccc(F)cc3)n2)CN1c1ccc(Cl)cc1 (stereo not drawn)
39 | 937 | COCCOCC1CCN(S(=O)(=O)c2ccc(C(F)(F)F)cc2)CC1
40 | 610 | O=C(NCCN1CCOC(c2ccccc2)C1)c1ccc(Cl)c(Cl)c1 (stereo not drawn)
41 | 793 | CCCN1C(=O)COc2cc(-c3noc(C(=O)NCC(C)c4ccccc4)n3)ccc21 (stereo not drawn)
42 | 650 | CCOC(=O)C1=C(c2ccccc2)NC(SCC)=C(C#N)C1c1cccnc1 (stereo not drawn)
43 | 624 | Cn1c(=O)sc2cc(S(=O)(=O)N3CCC(C(=O)NCCc4nc5ccccc5[nH]4)CC3)ccc21
44 | 705 | Cc1ccc2nc(NC(=O)CSc3nnc(CNC(=O)c4ccco4)o3)sc2c1

Row | RP-LC retention time [s] | SMILES
45 | 828 | COc1ccc(Nc2c(-c3ccc(Cl)cc3)nc3cnccn23)cc1OC
46 | 650 | CCn1c(CN(C)C(=O)Nc2ccc(Br)cc2F)nc2cc(C(=O)N(C)C)ccc21
47 | 868 | O=C(NCc1ccc(-c2noc(Cc3ccccc3F)n2)s1)C1CC1
48 | 661 | CCOc1ccc(NC(=O)Cn2cnc3cc4c(cc32)OCCO4)cc1
49 | 914 | Cc1ccc(NC(=O)C2CCCN2S(=O)(=O)c2cc3c(cc2C)NC(=O)C(C)O3)c(Cl)c1 (stereo not drawn)
50 | 673 | O=C(c1ccco1)N1CCCC1c1nc(C2CCOCC2)no1 (stereo not drawn)
51 | 729 | CCOC(=O)c1c(C)[nH]c(CCC(=O)NCCc2c(C)noc2C)c1C
52 | 830 | O=C1OCC/C1=C\c1ccc2c(c1)OCO2
53 | 548 | Cc1nnc2c(=O)n(CC(=O)N3CCN(c4ccccn4)CC3)c3cccnc3n12
54 | 711 | COc1ccc(N2CCN(C(=O)C3CCCN(c4ccc(-c5ccccc5)nn4)C3)CC2)cc1 (stereo not drawn)
55 | 732 | O=C(CN1C(=O)C2CCCCN2c2ccc(C(=O)N3CCCC3)cc21)NC1CCCC1 (stereo not drawn)
56 | 943 | CCCCn1cc(S(=O)(=O)Nc2ccc(C)cc2)c2cccnc21
57 | 912 | CC(=O)N1c2ccc(S(=O)(=O)N3CCCCC3)cc2CC1C(=O)Nc1cc(C)ccc1C (stereo not drawn)
58 | 726 | Cc1ccc(-c2ncccc2CNS(=O)(=O)c2cccc(C)c2)cc1
59 | 667 | Cc1c(-c2nnc(C(=O)NCCN3CCCCCC3)o2)oc2ccccc12
60 | 606 | NC(=O)C1CCN(C(=O)C2COC3(CCCCC3)N2C(=O)c2ccccc2)CC1 (stereo not drawn)
61 | 684 | Cc1oc(C2CCN(C(=O)CCc3cc(Cl)no3)CC2)nc1C(=O)N1CCOCC1
62 | 833 | O=C(CN1CCN(Cc2ccccc2)C1=O)NCc1ccc(F)cc1Cl
63 | 789 | COc1ccc2[nH]cc(CCNC(=O)c3ccccc3F)c2c1
64 | 655 | COc1ccc(-n2c(Cc3cccn3C)nnc2SCC(=O)NCC2CCCO2)cc1 (stereo not drawn)
65 | 758 | Cc1cccc(N2CCN(S(=O)(=O)c3cc4n(c3)CCCNC4=O)CC2)c1
66 | 1110 | CCc1cccc(C)c1NC(=O)Cn1c(C)nc2c(sc3nc(-c4ccccc4)ccc32)c1=O

Row | RP-LC retention time [s] | SMILES
67 | 816 | CCCN1C(=O)COc2ccc(-c3csc(NC(=O)c4ccncc4)n3)cc21
68 | 574 | CCCCN1CCN(Cc2nc3nc(C)cc(N4CCCC4)n3n2)CC1
69 | 858 | COc1ccccc1-c1noc(C2CCCN2C(=O)Nc2cccc(C)c2C)n1 (stereo not drawn)
70 | 1300 | CCOc1nc2ccccc2nc1N1CCCC(C(=O)Nc2ccc(Cl)cc2)C1 (stereo not drawn)
71 | 1170 | COc1cccc(C2Cn3nnc(-c4nc(-c5ccccc5Br)no4)c3CO2)c1 (stereo not drawn)
72 | 716 | Cc1ccc(-c2ccc(N3CCN(c4ccccn4)CC3)nn2)cc1S(=O)(=O)N1CCCCCC1
73 | 687 | CCCCN(C(=O)c1ccc(S(=O)(=O)N2CCOCC2)cc1)C1CCS(=O)(=O)C1 (stereo not drawn)
74 | 1260 | COc1ccc2nc3cc(Cl)ccc3c(C#N)c2c1
75 | 653 | CNC(=O)c1ccc(-c2nc3cc(NS(=O)(=O)c4cccc(Cl)c4)ccc3n2C)cc1
76 | 652 | CCC(=O)N1CCc2cc(N3CC(C(=O)NCC4CC4)CC3=O)ccc21 (stereo not drawn)
77 | 616 | N#Cc1cccc(CN2CCCC2c2nc(-c3ccccc3)n[nH]2)c1 (stereo not drawn)
78 | 679 | CCN1CCCC1CNC(=O)C1CCN(S(=O)(=O)c2ccc(-c3noc(C4CC4)n3)cc2)CC1 (stereo not drawn)
79 | 801 | Cc1cc(Cl)ccc1OCCCC(=O)NO
80 | 773 | O=C(NCc1nnnn1-c1ccc(Cl)cc1)c1ccc(S(=O)(=O)N2CCCC2)cc1
81 | 1250 | CC1CCN(S(=O)(=O)c2cccc(-c3nnc(-c4ccc(Cl)cc4)o3)c2)CC1
82 | 912 | O=C(Cc1cccc(F)c1)N1CCC2(CC1)N=C(c1ccc(Cl)cc1)NO2
83 | 619 | CN1C(=O)c2cccnc2Sc2cc(NC(=O)C3CCOC3)ccc21 (stereo not drawn)
84 | 1000 | O=C(Nc1ccc(Br)cc1F)C1CCN(S(=O)(=O)Cc2ccccc2)CC1
85 | 695 | COc1ccc(C(C)NC(=O)C2CCN(c3cnc4nccnc4c3)CC2)cc1 (stereo not drawn)
86 | 875 | COc1ccc(-c2nnc(-c3cccnc3N3CCC4(CC3)OCCO4)o2)cc1
87 | 981 | COCCn1cc2c3c(cccc31)CN(C(=O)Nc1cccc(Cl)c1)CC2
88 | 867 | COc1ccc(C(=O)N2CCN(c3ccc(=O)n(-c4ccc(C(C)C)cc4)n3)CC2)cc1OC

Source: the METLIN SMRT retention time set (Domingo-Almenara et al. 2019)
